Experimental data from patent US20040162337A1, “Chemical compounds having therapeutic activities in treating cancer” (priority 2003, published 2004).
Entries after “also recorded” stand apart in the source; their conditions may differ.

Columns and labels:
KB-V1 cells = test: Apoptosis study by DNA ladder, KB-V1; type: cell-based, human; conditions: 24 hours
Experimental: (§1) This experiment was a continuation of Experiment 7. Apoptotic studies by DNA ladder was carried out for 24 hours with drug treatment at different concentrations (17.26 μM, 34.52 μM & 172.56 μM) of APC. A total of eight groups of cells were used. 5×10^6 cells were washed in PBS. Their genomic DNA was extracted using Apoptotic DNA Ladder Kit-Best. Nr. 1 835 246 (Roche) according to Manufacturer's manual. DNA was analyzed by electrophoresis in 2% agarose gel containing 0.1% ethidium bromide in TAE buffer (99v, 30 min). DNA bands were observed and recorded by Multi-Imager (Bio-Rad, California, USA).

KB-3-1 cells [1] = test: Doxorubicin accumulation assay (flow cytometry), KB-3-1; type: cell-based, human; conditions: pre-treatment, then 2 μM doxorubicin 30 min
Experimental: (§2) Data was collected with CellQuest Software and analysed with ModFitLT V2.0. Mean fluorescence intensities of 1×10^4 drug-treated cells were quantified and compared with the APC untreated cells. […] A negative control test was also performed.

P-glycoprotein (P-gp) = test: Western blotting of P-gp; type: cell-based, human; conditions: KB-3-1 and KB-V1 cells, 1× and 2× dose of LD50
Experimental: (§3) For protein analysis of P-gp and actin, cells were lysed in ice-cold lysis buffer (1% sodium deoxycholate, 0.1% SDS, 1% Triton X-100, 2 mM phenylmethylsulphonyl fluoride, 1% aprotinin). Total lysates were subjected to SDS/PAGE and electrotransferred to nitrocellulose membranes (Bio-Rad). Membranes were then incubated with anti-P-gp or anti-β-actin antibody (Calbiochem) in blocking buffer (10 mM Tris pH7.5, 100 mM NaCl, 0.1% Tween 20, 5% non-fat dry milk) for 1 hour at room temperature before incubation with horseradish-peroxidase-conjugated anti-(rabbit IgG) or anti-(mouse IgG) antibody (Gibco BRL) for 1 hour at room temperature. Immunobinding was detected by the ECL method (Amersham). β-actin polyclonal antibody (Oncogene Science, Uniondale, N.Y., USA) was used as internal standard. Drug-sensitive KB-3-1 was used as control experiments.

MDR KB-V1 cells [2] = test: Sulfo-Rhodamine B (SRB) cytotoxicity assay, KB-V1; type: cell-based, human; conditions: 3-day dose-response
Experimental: In the following experiments, tests were conducted using the human cancer cell lines KB-3-1 and KB-V1. The MDR cancer cells KB-V1 were selected from drug sensitive KB-3-1 cells treated by vinblastine. The cell lines (American Type Culture Collection, MD, USA) were routinely grown in MEM (Gibco, MD, USA) containing 10% fetal bovine serum (FBS) and 1% antibiotic solution (Gibco, MD, USA), and 300 ng/ml of vinblastine for maintenance of drug resistance for KB-V1 cells. Cultures of the cells were maintained in a humidified 5% CO2 incubator.
The color intensity of SRB, positively correlated to number of cell, was estimated by correlating to OD at 515 nm. The concentration of DMSO and ethanol in the drug solvent of APC was 20 wt % and 80 wt % respectively. The concentration of DMSO in each culture sample was ≦0.1%.

actin = test: Western blotting of actin; type: cell-based, human; conditions: KB-3-1 and KB-V1 cells, 1× and 2× dose of LD50
Experimental: as §3

[3] = system: human carcinoma KB-3-1 cancer cell line; test: Sulfo-Rhodamine B (SRB) cytotoxicity assay, KB-3-1; type: cell-based; conditions: drug-sensitive KB-3-1 cells, 72 hours, median-effect plot
Experimental: Assays were carried out in triplicate against human carcinoma KB-3-1 cancer cell line. […] The treatment of KB-3-1 cancer cells lasted for 72 hours and the cell number in each sample was estimated by correlating to optical density (OD) at 515 nm. […] The median dose value was determined from plots of median effects and was equivalent to LD50 (Skehan P.; Storeng R.; Scudiero D.; Monks A.; McMahon J.; Vistica D; Warren J T.; Bokesch H.; Kenney S.; Boyd M R.; J Natl Cancer Inst 1990 82:1107-1112).

MDR KB-V1 cells [4] = test: Combination Index (CI-isobologram) of APC and doxorubicin, KB-V1; type: cell-based, human; conditions: APC 2.0219 μM to 129.3996 μM with doxorubicin, particularly fractional kill greater than 50%
Source text: (§4) In this experiment, the CI-isobologram by Chou and Talalay was used to determine the Combination Index (CI) of APC and doxorubicin. In order to understand the synergistic effect of APC with a conventional cancer drug, a number of combinations of drug concentrations were used in the combination studies. A mutually non-exclusive equation was used to determine the CIs, and the equation is illustrated and explained in the Appendix section below. CI>1, CI=1, and CI<1 indicate antagonism, additive effect, or synergism, respectively. The explanation of the determination of combination indices (CI) is provided in the Appendix section towards the end of the description.
(§5) The Chou and Talalay (Chou T C; Talay P. Adv Enzyme Regul 1984 22:27-55) combination index CI-isobologram equation for two-drug combination is: [formula]
(§6) Firstly, the Din (Median Dose or LD50) and m of each treatment was determined according to the Median-Effect Plot. […] Combination Indices (CI) were calculated at various fractional kill (fa).
(§7) The CI-isobologram by Chou and Talalay was used to determine the Combination Indices (CI) of APC and doxorubicin. […] The mutually non-exclusive equations were used to determine the CIs and each CI was calculated from the mean affected fraction at each drug ratio concentration.

MDR1 mRNA = test: Reverse transcription-PCR of MDR1; type: cell-based, human; conditions: KB-3-1 and KB-V1 cells, 1× and 2× dose of LD50
Experimental: (§8) 1 μg of total RNA isolated from cells using High Pure™ RNA Isolation Kits (Roche) was incubated with 100 ng random primers (Gibco BRL) and DEPC-treated water (total volume 10 μl) for 10 min at 65° C., then for 5 min on ice. Reverse transcription mixture contained 4 μl of 5× reaction buffer (50 mM Tris-HCl, 100 mM NaCl, 1 mM EDTA, 10 mM DTE, 0.05% polydocanol v/v, 50% glycerol v/v, pH 8.4), 2 μl 10 mM dNTP, 2 μl 100 mM dithiothreitol and 1 μl 50 units/μl Expand™ Reverse Transcriptase (Roche). The reaction lasted for 1.5 hours at 42° C. PCR amplifications were carried out using Expand™ Long Template PCR System (Roche). The primers used were cDNA sequences of p-glycoprotein (P-gp) SEQ ID NO. 1 (sense strand) and SEQ ID NO. 2 (anti-sense strand); cDNA sequences of β-actin SEQ ID NO. 3 (sense strand) and SEQ ID NO. 4 (anti-sense strand). […] of [α-^32P]dATP was added to 25 μl amplification reaction mix. The PCR was performed in a Gene Cycler™ (Bio-Rad) for 27 cycles, consisting of 1 min at 94° C., 1 min at 57° C. and 1 min at 72° C. The samples were heated for 5 min at 94° C. before the first cycle, and the extension time was lengthened to 10 min during the last cycle. PCR products resulted therefrom were size-fractionated on 10% polyacrylamide gel. Autoradiography was carried out with BioMax film (Kodak). Drug-sensitive KB-3-1 was used as control experiments. […]

KB-3-1 cells [5] = test: Combination Index (CI-isobologram) of APC and doxorubicin, KB-3-1; type: cell-based, human
Source text: as §4, §5, §6, §7

β-Actin = test: Reverse transcription-PCR of β-Actin (internal standard); type: cell-based, human; conditions: KB-3-1 and KB-V1 cells, 1× and 2× dose of LD50
Experimental: as §8

MDR KB-V1 cells [6] = test: Doxorubicin accumulation assay (flow cytometry), KB-V1; type: cell-based, human
Experimental: as §2

KB-3-1 cells [7] = test: Apoptosis study by DNA ladder, KB-3-1; type: cell-based, human; conditions: 24 hours
Experimental: In this experiment, three groups of KB-3-1 cells were treated for 24 hours at different concentrations (17.26 μM, 34.52 μM & 172.56 μM) of APC. A control group of KB-3-1 cells was treated as negative control for the same amount of time. Approximately 5×10^6 cells from each of the four groups were washed in phosphate buffered saline (PBS) and their genomic DNA was extracted using Apoptotic DNA Ladder Kit-Best. Nr. 1 835 246 (Roche) according to the manufacturer's manual. The extracted DNA was analyzed by electrophoresis in 2% agarose gel containing 0.1% ethidium bromide in tris galacial acetic acid (TAE) buffer for 30 minutes at 99v. DNA bands of the gel were observed and recorded by Multi-Imager (Bio-Rad, California, USA).
as §1

| Structure (SMILES) | DNA ladder, state of DNA (KB-V1 cells; 17.26 μM) | DNA ladder, state of DNA (KB-V1 cells; 172.6 μM) | accumulation of doxorubicin in cells (KB-3-1 cells [1]) | level of P-gp proteins (P-glycoprotein (P-gp)) | LD50 (MDR KB-V1 cells [2]) | level of actin (actin) | LD50 [3] | synergism with doxorubicin (MDR KB-V1 cells [4]) | MDR1 mRNA level (MDR1 mRNA) | synergism with doxorubicin (KB-3-1 cells [5]; APC 2.0219 μM to 129.3996 μM with doxorubicin) | Combination Index (CI) (KB-3-1 cells [5]; drug combination C (doxorubicin 0.0431 μM, APC 129.3996 μM), all fractional kill) | β-Actin mRNA level (β-Actin) | accumulation of doxorubicin in cells (MDR KB-V1 cells [6]; KB-V1 cells, pre-treatment, then 2 μM doxorubicin 30 min) | increase of doxorubicin accumulation (MDR KB-V1 cells [6]; MDR KB-V1 cells, 6 hours incubation at LD50, then 2 μM doxorubicin 30 min) | DNA ladder, state of DNA (KB-3-1 cells [7]; 17.26 μM) | apoptosis (DNA fragmentation, DNA ladder) (KB-3-1 cells [7]; 172.6 μM) |
| --- | --- | --- | --- | --- | --- | --- | --- | --- | --- | --- | --- | --- | --- | --- | --- | --- |
| C/C=C(/C)C(=O)OC1C(OC(C)=O)c2c(ccc3ccc(=O)oc23)OC1(C)C (stereo not drawn) [APC, cis-3′-angeloyl-4′-acetoxy-khellactone] | slightly cut | cut in larger extent | more doxorubicin accumulated | lower | 17.2656 ± 8.2441 µM | not affected | 41.9153 ± 2.8016 µM | relatively high synergistic interactions | reduced significantly | relatively low synergism; also recorded: little or no synergistic interactions | greater than 1 | not affected | substantially higher accumulation of doxorubicin | approximately 25% | little affected | significantly more apoptosis |
| COc1cccc2c1C(=O)c1c(O)c3c(c(O)c1C2=O)C[C@@](O)(C(=O)CO)C[C@@H]3O[C@H]1C[C@H](N)[C@H](O)[C@H](C)O1 [doxorubicin, reference compound] | – | – | – | – | 3.0510 ± 0.2846 µM | – | – | – | – | – | – | – | – | – | – | – |
